Measurements as given in patent US9561228B2 (Celgene Avilomics Research, Inc., priority 2013, dated 2017).

What was measured:
[1] = system: ERK1/2 phosphorylation of p90RSK in A375 cells; test: Detection of total and phosphor-RSK by MSD ELISA (A375); type: cell-based; conditions: Homo sapiens, A-375, read-out: ERK1/ERK2 PRSK A375 EC50
Procedure: Detection of Total and Phosphor-RSK by MSD ELISA (A375)
(§1) The protocol below describes an assay to measure the kinase activity of ERK1/2 to phosphorylate a substrate, p90RSK, in the presence or absence of a test compound.
A375 cells were grown in DMEM/10% FBS. Twenty four hours prior to the assay, 50,000 cells per well were plated in a 96 well flat bottom plate. Once cells attached to the plate, the medium was replaced with 100 ul of DMEM/0.1% FBS. Cells were cultured overnight in an incubator at 37° C.
Compound stock solutions of 10 mM in DMSO were prepared. 1000× dilutions were then prepared in DMSO. 1 uL of DMSO solution was then transferred to 1 ml DMEM/0.1% FBS in a deep well plate. Cell plate media was discarded, followed by addition of 100 uL of the compound-containing media. The preparation was incubated at 37° C. for 2 hrs.
Cell lysates were prepared as described below.
pRSK or Total RSK MSD Assay
(§2) MSD plates: Blank MSD plates were coated with 30 uL capture antibody (BD 610226) at a final concentration of 1 ug/mL in PBS. Both pRSK and total RSK MSD assays used the same capture antibody at the same concentration. Antibody stock concentration was 250 ug/mL. Once antibody solution was added to the MSD plate, the sides were tapped to be certain it was coated completely (visual inspection). It was then covered and placed at 4° C. overnight on a level surface.
(§3) Block MSD Plate: The coating antibody was removed and the plate was washed on a plate washer in MSD wash buffer. The last bit of wash solution was tapped out and 150 uL/well of 3% BSA in MSD wash buffer was added in. The preparation was placed on a shaker at room temperature for at least an hour.
Add samples: Media was removed from compound-treated cells and replaced with 55 uL/well MSD cell lysis buffer containing protease and phosphotase I & II inhibitors. The preparation was incubated on a shaker in a cold room for 30-45 min. The blocked MSD plate was washed a on plate washer, tapping out the last bit of wash solution, followed by addition of 50 uL (of the 55 ul) cell lysate in a well-well transfer. The preparation was covered and incubated on a shaker at room temp for 2 hours. The lysate was removed, washed on a plate washer 3 times, and the last bit of wash buffer was tapped out and replace with 25 uL/well detection antibody (described below).
For pRSK detection, a pRSK antibody stock of 21 ug/mL was prepared as follows: 1 ug/mL pRSK Ser380 antibody (Cell Signaling Technology, Cat. #9335)+1:750 anti-rabbit SulfoTag (Mesoscale Discovery, Cat. # R32AB-1) in 1% BSA in MSD wash buffer.
(§4) For total RSK detection, a total RSK antibody stock of 200 ug/mL was prepared as follows: 1 ug/mL total RSK (Santa Cruz sc-231G) antibody+1:750 anti-goat SulfoTag (from MSD, R32AG-1) in 1% BSA in MSD wash buffer.
The plate was incubated for 1 hr at room temperature on a shaker, followed by three washings. The last bit of wash buffer was tapped out. 150 uL/well 1×MSD Read buffer was added and the plate was then analyzed.

[2] = system: ERK1/2 phosphorylation of p90RSK in HCT116 cells; test: Detection of total and phospho-RSK by MSD ELISA (HCT116); type: cell-based; conditions: Homo sapiens, HCT-116, read-out: ERK1/ERK2 PRSK HCT116 EC50
Procedure: Detection of Total and Phospho-RSK by MSD ELISA (HCT116)
as §1
HCT116 cells were grown in RPMI/10% FBS. Prior to the assay, 50,000 cells per well were plated in a 96 well flat bottom plate. Cells were cultured overnight in an incubator at 37° C.
Compound stocks were 10 mM in DMSO. A 1000× dilution was made in DMSO. 1 uL of the DMSO solution was transferred to 1 ml RPMI/10% FBS in a deep well plate. Media in the cell plate was discarded, and 100 uL of the compound-containing media was added. The preparation was incubated at 37° C. for 2 hrs.
Preparation of cell lysates are described below.
pRSK or total RSK MSD Assay
as §2, with “to” for “to the”
as §3, with “uL/well” for “uL/well of”, “BSA (MSD Blocker A)” for “BSA”, “added.” for “added in.”
Add samples: Media was removed from compound-treated cells and replaced with 55 uL/well MSD cell lysis buffer containing protease and phosphotase I & II inhibitors. The preparations was incubate on a shaker in a cold room for 30-45 min. The blocked MSD plate was washed on a plate washer, and the last bit of wash solution was tapped out. Next was added 50 uL (of the 55 uL) cell lysate in a well-well transfer. The preparation was covered and incubated on shaker at room temp for 2 hours. The lysate was then removed and washed on plate washer 3 times. The last bit of wash buffer was then tapped out and replaced with 25 uL/well detection antibody (described below).
For pRSK detection, a pRSK antibody stock of 21 ug/mL was prepared as follows: 1 ug/mL pRSK Ser380 antibody (Cell Signaling Technology, Cat. #9335)+1:750 anti-rabbit SulfoTag (from MSD, R32AB-1) in 1% BSA in MSD wash buffer.
as §4
The plate was incubated for 1 hr at room temperature on a shaker, followed by three washes. The last bit of wash buffer was tapped out. Next, 150 uL/well 1×MSD Read buffer was added and the plate was analyzed by the MSD reader.

[3] = system: ERK1/2 phosphorylation of p90RSK in HT29 cells; test: pRSK MSD Assay in HT29 cells; type: cell-based; conditions: Homo sapiens, HT-29, read-out: ERK1/ERK2 PRSK MSD HT29 EC50
Procedure, shortened: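 Phospho-RSK level, read by electrochemiluminescence on RSK-antibody-coated MSD plates with a phospho-RSK/Sulfo-tag detection pair, reports cellular ERK1/2 activity. HT29 cells, kept overnight in 0.1% FBS medium, were exposed to compound for 120 min at 37° C before lysis.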

MEK1 activated ERK1 = biological target: T1, MEK1 activated ERK1 (Homo sapiens, UniProt P27361); test: Omnia continuous-read kinase assay for potency against MEK1 activated ERK1; type: biochemical; conditions: ATP at KM, WT
T1 construct: purchased Millipore (Billerica, Mass.) 14-439-K
T1 sequence (P27361 whole entry): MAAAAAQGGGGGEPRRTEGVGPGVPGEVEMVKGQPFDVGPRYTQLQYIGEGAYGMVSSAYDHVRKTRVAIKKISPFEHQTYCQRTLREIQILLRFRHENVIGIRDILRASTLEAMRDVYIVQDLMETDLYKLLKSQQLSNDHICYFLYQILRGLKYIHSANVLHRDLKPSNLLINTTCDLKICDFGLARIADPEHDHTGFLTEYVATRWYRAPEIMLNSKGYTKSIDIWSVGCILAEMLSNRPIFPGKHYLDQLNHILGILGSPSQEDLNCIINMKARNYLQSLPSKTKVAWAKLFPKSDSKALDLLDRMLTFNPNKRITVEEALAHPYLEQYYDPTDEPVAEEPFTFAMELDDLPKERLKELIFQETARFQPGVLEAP
Procedure, shortened: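 Apparent IC50 came from initial reaction slopes (RFU vs time) plotted against log inhibitor with a variable-slope fit. Reactions were started with ERK1 (4 nM final) added to 50 μM ATP, roughly at its appKM, and 10 μM Sox-conjugated ST17 peptide in 20 mM Tris pH 7.5, 5 mM MgCl2. Fluorescence was monitored every 71 seconds.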

Compound	EC50 [1] [nM]	EC50 [2] [nM]	EC50 [3] [nM]	IC50 (MEK1 activated ERK1) [nM]
C=CC(=O)Nc1cc(C)ccc1Nc1nc(Nc2cnnc(Cl)c2)ncc1C(F)(F)F [Compound I-331, N-(2-((2-((6-chloropyridazin-4-yl)amino)-5-(trifluoromethyl)pyrimidin-4-yl)amino)-5-methylphenyl)acrylamide]	501 to 999	> 1000	–	–
C=CC(=O)Nc1cc(C)ccc1Nc1nc(Nc2cnnc(OC)c2)ncc1C(F)(F)F [Compound I-335, N-(2-((2-((6-methoxypyridazin-4-yl)amino)-5-(trifluoromethyl)pyrimidin-4-yl)amino)-5-methylphenyl)acrylamide]	501 to 999	501 to 999	501 to 999	–
C=CC(=O)Nc1cc(OC(C)(C)C(N)=O)ccc1Nc1nc(Nc2cc(OC)ncc2C)ncc1C(F)(F)F [Compound I-414, N-(5-((1-amino-2-methyl-1-oxopropan-2-yl)oxy)-2-((2-((2-methoxy-5-methylpyridin-4-yl)amino)-5-(trifluoromethyl)pyrimidin-4-yl)amino)phenyl)acrylamide]	< 100	–	< 100	< 100
C=CC(=O)Nc1cc(OC)ccc1Nc1nc(Nc2cc(OC)nc(N3CCN(C(C)=O)CC3)c2)ncc1Cl [Compound I-297, N-(2-((2-((2-(4-acetylpiperazin-1-yl)-6-methoxypyridin-4-yl)amino)-5-chloropyrimidin-4-yl)amino)-5-methoxyphenyl)acrylamide]	> 1000	< 100	< 100	–
C=CC(=O)Nc1cc(C)ccc1Nc1nc(N[C@@H]2CCN(S(=O)(=O)C=C)C2)ncc1C(F)(F)F [Compound I-280, (R)—N-(5-Methyl-2-((5-(trifluoromethyl)-2-((1-(vinylsulfonyl)pyrrolidin-3-yl)amino)pyrimidin-4-yl)amino)phenyl)acrylamide]	> 1000	> 1000	–	–
C=CC(=O)Nc1cc(OCC(=O)N2CCN(S(C)(=O)=O)CC2)ccc1Nc1nc(Nc2cc(OC)ncc2C)ncc1C(F)(F)F [Compound I-405, N-(2-((2-((2-methoxy-5-methylpyridin-4-yl)amino)-5-(trifluoromethyl)pyrimidin-4-yl)amino)-5-(2-(4-(methylsulfonyl)piperazin-1-yl)-2-oxoethoxy)phenyl)acrylamide]	101 to 500	< 100	< 100	–
C=CC(=O)Nc1cc(Cl)ccc1Nc1nc(Nc2cc(OC)ncc2C)ncc1C(F)(F)F [Compound I-289, N-(5-Chloro-2-((2-((2-methoxy-5-methylpyridin-4-yl)amino)-5-(trifluoromethyl)pyrimidin-4-yl)amino)phenyl)acrylamide]	< 100	101 to 500	< 100	–
C=CC(=O)Nc1cc(C)ccc1Nc1nc(N[C@H]2CCCN(S(=O)(=O)C=C)C2)ncc1C(F)(F)F [Compound I-277, (S)—N-(5-Methyl-2-((5-(trifluoromethyl)-2-((1-(vinylsulfonyl)piperidin-3-yl)amino)pyrimidin-4-yl)amino)phenyl)acrylamide]	> 1000	> 1000	> 1000	–
C=CC(=O)Nc1ccccc1Nc1nc(Nc2ccnc(NC)c2)ncc1C(F)(F)F [Compound I-321, N-(2-((2-((2-(methylamino)pyridin-4-yl)amino)-5-(trifluoromethyl)pyrimidin-4-yl)amino)phenyl)acrylamide]	> 1000	> 1000	> 1000	–

Results, then the compound that gave them:

EC50 [1] [nM]	EC50 [2] [nM]	EC50 [3] [nM]	IC50 (MEK1 activated ERK1) [nM]	Compound
> 1000	501 to 999	> 1000	–	C=CC(=O)Nc1ccccc1Nc1nc(Nc2cc(OC)nc(N3CCN(S(C)(=O)=O)CC3)c2)ncc1C(F)(F)F [Compound I-290, N-(2-((2-((2-Methoxy-6-(4-(methylsulfonyl)piperazin-1-yl)pyridin-4-yl)amino)-5-(trifluoromethyl)pyrimidin-4-yl)amino)phenyl)acrylamide]
101 to 500	> 1000	–	–	C=CC(=O)Nc1ccccc1Nc1nc(Nc2c[nH]nc2C)ncc1C(F)(F)F [Compound I-330, N-(2-((2-((3-methyl-1H-pyrazol-4-yl)amino)-5-(trifluoromethyl)pyrimidin-4-yl)amino)phenyl)acrylamide]
> 1000	> 1000	> 1000	–	C=CC(=O)Nc1cc(C)ccc1Nc1nc(N[C@@H]2CCCN(S(=O)(=O)C=C)C2)ncc1C(F)(F)F [Compound I-278, (R)—N-(5-Methyl-2-((5-(trifluoromethyl)-2-((1-(vinylsulfonyl)piperidin-3-yl)amino)pyrimidin-4-yl)amino)phenyl)acrylamide]
501 to 999	> 1000	501 to 999	–	C#CCOc1cc(C)c(Nc2ncc(C(F)(F)F)c(Nc3ccc(C)cc3NC(=O)C=C)n2)cc1C(N)=O [Compound I-362, 5-((4-((2-acrylamido-4-methylphenyl)amino)-5-(trifluoromethyl)pyrimidin-2-yl)amino)-4-methyl-2-(prop-2-yn-1-yloxy)benzamide]
> 1000	> 1000	–	–	CCC(=O)Nc1cc(C)ccc1Nc1nc(Nc2cc(OC)ncc2C)ncc1C(F)(F)F [Compound I-352, N-(2-((2-((2-methoxy-5-methylpyridin-4-yl)amino)-5-(trifluoromethyl)pyrimidin-4-yl)amino)-5-methylphenyl)propionamide]
